# Measured values from US6426355B1, “Heterocyclic carboxamide-containing thiourea inhibitors of herpes viruses containing phenylenediamine group” (American Home Products, priority 1998, dated 2002).
# What was measured:
# [1] = system: HCMV recombinant mutant virus (RV145); assay: HCMV microtiter plate assay (beta-glucuronidase reporter); assay type: cell-based, Human Cytomegalovirus; details: HCMV in human foreskin fibroblasts
# Excerpt: Ninety-six well plate cultures of human foreskin fibroblasts are infected in the presence of inhibitor compound with a HCMV recombinant mutant virus whose genome contains the prokaryotic beta-glucuronidase gene (Jefferson, R. A., S. M. Burgess, and D. Hirsh. 1986. Beta-glucuronidase from Escherichia coli as a gene fusion marker. Proc. Natl. Acad. Sci. USA 83:8447-8451) whose expression is controlled by a viral promoter. An example of such a virus is RV145 (Jones, T. R., V. P. Muzithras, and Y. Gluzman. 1991. Replacement mutagenesis of the human cytomegalovirus genome: US10 and US11 gene products are nonessential. J. Virol. 65:5860-5872). Since it is under the control of a viral promoter, beta-glucuronidase expression is an indirect indicator of growth and replication of HCMV in this assay. At 96 hours post-infection, the infected cell lysates are prepared (using 50 mM sodium phosphate [pH7.0] containing 0.1% Triton X-100 and 0.1% sarkosyl) and assayed for beta-glucuronidase activity using a substrate for the enzyme which when cleaved yields either a product which can be measured colorimetrically in a spectrophotometer or fluorescently in a microfluorimeter. Examples of such substrates are p-nitrophenyl-beta-D-glucuronide and methylumbelliferylglucuronide, respectively. The presence of an antiviral compound is indicated by the reduced expression of the HCMV genome resident beta-glucuronidase gene, compared to the absence of inhibitor. […] Data from this assay generated using varying amounts of inhibitor compound is also used to estimate the IC50 of an inhibitor compound.
# VZV strain Ellen = assay: VZV Antiviral (ELISA) assay; assay type: cell-based; details: VZV strain Ellen in HFF cells
# Experimental: For the generation of stock VZV to be used in the assay, VZV strain Ellen (ATCC #VR-1367) is used to infect human foreskin fibroblast (HFF) cells at low multiplicity (less than 0.1) and incubated overnight at 37° C. in 5% CO2. After the overnight incubation, the mixture of uninfected and VZV-infected HFF infected cells are then harvested and added to each well of 96-well plates (3.5×10^4 cells in 100 μl DMEM supplemented with 2% FBS) which contain test compound or the reference standard drug control (in 100 μl DMEM supplemented with 2% FBS per well). These cells are incubated for three days at 37° C. in 5% CO2, then fixed for ELISA assay. The primary antibody is murine anti-VZV glycoprotein II monoclonal antibody (Applied Biosystems, Inc. #13-145-100) and the secondary antibody is goat anti-mouse IgG linked to β-galactosidase. Thus the extent of viral replication is determined by assessing β-galactosidase activity by quantifying the generation of the 4-methyl umbelliferone fluorescent cleavage product after addition of the methyl umbelliferyl-β-D-galactoside (Sigma #M1633) substrate on a microfluorimeter (365 nm for excitation and 450 nm for emission). Antiviral activity (IC50) of the test compound is determined by comparing the flourescence obtained in absence of compound to that obtained in the presence of compound.
Structure (SMILES),IC50 (ug/ml) HCMV [1] [µg/mL],IC50 (ug/ml) VZV (VZV strain Ellen) [µg/mL]
CN(C)c1cc(NC(=S)Nc2ccc(NC(=O)c3csnn3)cc2)cc(C(F)(F)F)c1 [Example 571],0.013,>10
O=C(Nc1ccc(NC(=S)NCc2cccc(Cl)c2)cc1)c1csnn1 [Example 572],0.0078,>10
O=C(Nc1ccc(NC(=S)NCCc2cccc(F)c2)cc1)c1ccco1 [Example 573],0.05,>10
O=C(Nc1ccc(NC(=S)NCCc2ccccc2)cc1)c1ccco1 [Example 574],0.089,>10
O=C(Nc1ccc(NC(=S)NCCc2ccccc2)cc1)c1csnn1 [Example 575],0.017,2
O=C(Nc1ccc(NC(=S)NCc2cc(F)cc(F)c2)cc1)c1ccco1 [Example 579],0.05,6
O=C(Nc1ccc(NC(=S)NCc2cc(F)cc(F)c2)cc1)c1csnn1 [Example 581],0.01,>10
O=C(Nc1ccc(NC(=S)NCc2cc(Cl)cc(Cl)c2)cc1)c1ccco1 [Example 582],0.01,8
O=C(Nc1ccc(NC(=S)NCc2cc(Cl)cc(Cl)c2)cc1)c1csnn1 [Example 584],0.0026,>10
O=C(Nc1ccc(NC(=S)NCc2cc(F)cc(C(F)(F)F)c2)cc1)c1ccco1 [Example 585],0.015,>10
O=C(Nc1ccc(NC(=S)NCc2cc(F)cc(C(F)(F)F)c2)cc1)c1csnn1 [Example 587],0.005,>10
COc1ccc(CCNC(=S)Nc2ccc(NC(=O)c3ccco3)cc2)cc1OC [Example 611],0.5,>10
O=C(Nc1ccc(NC(=S)NCCCc2ccccc2)cc1)c1ccco1 [Example 612],0.049,1
O=C(Nc1ccc(NC(=S)NCCCc2ccccc2)cc1)c1csnn1 [Example 613],0.011,>10
O=C(Nc1ccc(NC(=S)NCCc2cc(C(F)(F)F)cc(C(F)(F)F)c2)cc1)c1ccco1 [Example 614],0.024,7
O=C(Nc1ccc(NC(=S)Nc2ccc(I)c(C(F)(F)F)c2)cc1)c1csnn1 [Example 615],0.005,>10
CN1CCN(c2ccc(CNC(=S)Nc3ccc(NC(=O)c4csnn4)cc3)cc2C(F)(F)F)CC1 [Example 617],0.013,>10
CN(C)c1cc(CNC(=S)Nc2ccc(NC(=O)c3csnn3)cc2)cc(C(F)(F)F)c1 [Example 618],0.0016,>10
O=C(Nc1ccc(NC(=S)NCc2ccc(F)c(C(F)(F)F)c2)cc1)c1csnn1 [Example 624],0.002,>10
O=C(Nc1ccc(NC(=S)NCc2ccccc2Cl)cc1)c1csnn1 [Example 729],0.02,–
O=C(Nc1ccc(NC(=S)NCc2ccccc2F)cc1)c1csnn1 [Example 730],0.033,–
O=C(Nc1ccc(NC(=S)NCc2cccc(F)c2)cc1)c1csnn1 [Example 732],0.022,–
O=C(Nc1ccc(NC(=S)NCCOc2ccccc2Cl)cc1)c1csnn1 [Example 733],0.018,–

Structure (SMILES),IC50 (ug/ml) HCMV [1] [µg/mL],IC50 (ug/ml) VZV (VZV strain Ellen) [µg/mL]
O=C(Nc1ccc(NC(=S)NCCOc2ccccc2F)cc1)c1csnn1 [Example 735],0.022,–
O=C(Nc1ccc(NC(=S)NCCOc2cccc(F)c2)cc1)c1csnn1 [Example 736],0.012,–
O=C(Nc1ccc(NC(=S)Nc2ccc(F)cc2)cc1)c1csnn1 [Example 740],0.1,–
C[C@H](NC(=S)Nc1ccc(NC(=O)c2csnn2)cc1)c1ccc(Br)cc1 [Example 815],0.0095,0.27
C[C@@H](NC(=S)Nc1ccc(NC(=O)c2csnn2)cc1)c1ccc(Br)cc1 [Example 816],0.0053,>7.5
CC(NC(=S)Nc1ccc(NC(=O)c2csnn2)cc1)c1cc(C(F)(F)F)cc(C(F)(F)F)c1 (centres unmarked) [Example 818],0.0016,>7.5
C[C@H](NC(=S)Nc1ccc(NC(=O)c2csnn2)cc1)c1ccc(Cl)cc1 [Example 820],0.006,>7.5
C[C@@H](NC(=S)Nc1ccc(NC(=O)c2csnn2)cc1)c1ccc(Cl)cc1 [Example 821],0.005,>7.5
CC(NC(=S)Nc1ccc(NC(=O)c2csnn2)cc1)c1ccc(C#N)cc1 (centres unmarked) [Example 822],0.018,>7.5
CC(NC(=S)Nc1ccc(NC(=O)c2cscn2)cc1)c1ccc(Br)cc1 (centres unmarked) [Example 824],0.014,0.17
C[C@H](NC(=S)Nc1ccc(NC(=O)c2csnn2)cc1)c1cc(C(F)(F)F)cc(C(F)(F)F)c1 [Example 825],0.0013,>7.5
CC(NC(=S)Nc1ccc(NC(=O)c2csnn2)cc1)c1ccc(F)c(C(F)(F)F)c1 (centres unmarked) [Example 828],0.002,>7.5
CC(NC(=S)Nc1ccc(NC(=O)c2cscn2)cc1)c1cc(F)cc(C(F)(F)F)c1 (centres unmarked) [Example 831],0.0011,>7.5
CC(NC(=S)Nc1ccc(NC(=O)c2cscn2)cc1)c1ccc(C(F)(F)F)cc1F (centres unmarked) [Example 832],0.001,>7.5
CC(NC(=S)Nc1ccc(NC(=O)c2cscn2)cc1)c1cc(C(F)(F)F)ccc1F (centres unmarked) [Example 833],0.0019,>7.5
Cc1ccc(C(C)NC(=S)Nc2ccc(NC(=O)c3cscn3)cc2)c(C)c1 (centres unmarked) [Example 834],0.002,>7.5
CC(NC(=S)Nc1ccc(NC(=O)c2cscn2)cc1)c1ccc(Cl)cc1Cl (centres unmarked) [Example 836],0.004,>7.5
Cc1cccc(C(C)NC(=S)Nc2ccc(NC(=O)c3cscn3)cc2)c1 (centres unmarked) [Example 837],0.03,3.60
CC(NC(=S)Nc1ccc(NC(=O)c2cscn2)cc1)c1ccc(F)c(C(F)(F)F)c1 (centres unmarked) [Example 838],0.0007,>7.5
CC(NC(=S)Nc1ccc(NC(=O)c2cscn2)cc1)c1ccc(F)cc1Br (centres unmarked) [Example 854],0.02,–
CC(NC(=S)Nc1ccc(NC(=O)c2cscn2)cc1)c1ccc(Br)c(Br)c1 (centres unmarked) [Example 855],0.02,–
CC(NC(=S)Nc1ccc(NC(=O)c2cscn2)cc1)c1ccc(F)c(Cl)c1 (centres unmarked) [Example 856],0.02,–
